Measurements published in ChEMBL document CHEMBL2202975, “Inhibition of monoamine oxidase by 8-[(phenylethyl)sulfanyl]caffeine analogues” (Bioorg Med Chem, 2012).

Columns and labels:
[1] = Octanol-water partition coefficient, log P of the compound by shake flask method; type: physicochemical
Homo sapiens = organism: Homo sapiens; assay: Selectivity index, ratio of IC50 for human recombinant MAO-A to IC50 for human recombinant MAO-B
[2] = biological target: T1, Amine oxidase [flavin-containing] A (Homo sapiens, UniProt P21397); assay: Inhibition of human recombinant MAO-A expressed in insect cell microsome assessed as 4-hydroxyquinoline formation using kynuramine as substrate after 20 mins by fluorescence spectrophotometry; type: microsomes
T1 sequence (P21397 whole entry): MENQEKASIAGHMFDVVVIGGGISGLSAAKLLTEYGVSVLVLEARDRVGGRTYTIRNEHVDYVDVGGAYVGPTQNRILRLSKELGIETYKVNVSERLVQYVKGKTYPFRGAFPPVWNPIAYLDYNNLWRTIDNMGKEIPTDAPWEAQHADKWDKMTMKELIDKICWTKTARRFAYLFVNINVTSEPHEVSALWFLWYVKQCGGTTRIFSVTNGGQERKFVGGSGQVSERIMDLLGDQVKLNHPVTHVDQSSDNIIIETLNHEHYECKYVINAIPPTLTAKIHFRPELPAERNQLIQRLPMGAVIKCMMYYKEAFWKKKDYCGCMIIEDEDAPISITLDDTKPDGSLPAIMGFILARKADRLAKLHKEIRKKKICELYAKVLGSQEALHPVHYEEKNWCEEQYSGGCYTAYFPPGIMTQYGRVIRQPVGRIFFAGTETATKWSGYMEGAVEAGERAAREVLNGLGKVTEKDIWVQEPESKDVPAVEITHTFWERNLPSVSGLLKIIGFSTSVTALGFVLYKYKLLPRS

[3] = biological target: T2, Amine oxidase [flavin-containing] B (Homo sapiens, UniProt P27338); assay: (§1) Reversible inhibition of human recombinant MAO-B expressed in insect cell microsome assessed as enzyme activity recovery using kynuramine as substrate preincubated for 30 mins at 100xIC50 measured after 20 mins following 100-fold compound dilution with addition of substrate by fluorescence spectrophotometry; type: microsomes; design: scale not given: the % may be the effect or the level left
T2 sequence (P27338 whole entry): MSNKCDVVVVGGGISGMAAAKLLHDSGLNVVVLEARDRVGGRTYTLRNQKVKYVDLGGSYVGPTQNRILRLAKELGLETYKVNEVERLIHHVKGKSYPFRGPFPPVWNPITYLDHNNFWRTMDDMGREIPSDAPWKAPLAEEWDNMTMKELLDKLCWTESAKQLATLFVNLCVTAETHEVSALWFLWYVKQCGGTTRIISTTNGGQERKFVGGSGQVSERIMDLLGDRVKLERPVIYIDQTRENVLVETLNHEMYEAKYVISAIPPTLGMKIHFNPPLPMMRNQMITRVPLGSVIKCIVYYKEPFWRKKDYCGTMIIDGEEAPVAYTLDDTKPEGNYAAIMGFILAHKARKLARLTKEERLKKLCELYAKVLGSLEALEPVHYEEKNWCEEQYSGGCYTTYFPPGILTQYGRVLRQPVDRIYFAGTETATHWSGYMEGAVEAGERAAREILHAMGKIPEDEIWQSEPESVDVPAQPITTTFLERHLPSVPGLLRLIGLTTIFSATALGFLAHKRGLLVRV

[4] = biological target: T2, Amine oxidase [flavin-containing] B
Description: Inhibition of human recombinant MAO-B expressed in insect cell microsome assessed as 4-hydroxyquinoline formation using kynuramine as substrate after 20 mins by fluorescence spectrophotometry

[5] = biological target: T1, Amine oxidase [flavin-containing] A; assay: Inhibition of human recombinant MAO-A expressed in insect cell microsome assessed as 4-hydroxyquinoline formation using kynuramine as substrate at 100 uM after 20 mins by fluorescence spectrophotometry; type: microsomes
[6] = biological target: T2, Amine oxidase [flavin-containing] B; assay: as §1, with “4-hydroxyquinoline formation” for “enzyme activity recovery”, “15 to 60” for “30”, “2 times IC50” for “100xIC50”, “15” for “20”, “twofold” for “100-fold”; type: microsomes; conditions: 0.25 h
[7] = biological target: T1, Amine oxidase [flavin-containing] A; assay: (§2) Reversible inhibition of human recombinant MAO-A expressed in insect cell microsome assessed as 4-hydroxyquinoline formation using kynuramine as substrate preincubated for 15 to 60 mins at 2 times IC50 measured after 15 mins following twofold compound dilution with addition of substrate by fluorescence spectrophotometry; type: microsomes; conditions: 0.25 h
[8] = biological target: T2, Amine oxidase [flavin-containing] B; assay: Competitive inhibition of human recombinant MAO-B expressed in insect cell microsome using kynuramine as substrate by Morrison equation analysis; type: microsomes
[9] = biological target: T2, Amine oxidase [flavin-containing] B; assay: as §2, with “Time dependent” for “Reversible”, “MAO-B” for “MAO-A”; type: microsomes; conditions: 0.25 h
[10] = biological target: T2, Amine oxidase [flavin-containing] B; assay: Competitive inhibition of human recombinant MAO-B expressed in insect cell microsome using kynuramine as substrate by Lineweaver-Burk plot analysis; type: microsomes

Compound: Cn1c(=O)c2c(nc(SCCc3cccc(C(F)(F)F)c3)n2C)n(C)c1=O
- logP [1]: 3.14
- Ratio IC50 (Homo sapiens): 8290
- IC50 [2]: 141000 nM
- Activity [3]: 22%
- IC50 [4]: 17 nM

Compound: Cn1c(=O)c2c(nc(SCCc3ccc(F)cc3)n2C)n(C)c1=O
- Ratio IC50 (Homo sapiens): 207
- IC50 [2]: 14700 nM
- IC50 [4]: 71 nM

Compound: Cn1c(=O)c2c(nc(SCCc3ccc(C(F)(F)F)cc3)n2C)n(C)c1=O
- logP [1]: 3.21
- IC50 [4]: 19 nM
- inhibition (INH) [5]: Not Active

Compound: Cn1c(=O)c2c(nc(SCc3cccc(Cl)c3)n2C)n(C)c1=O
- Ratio IC50 (Homo sapiens): 28
- IC50 [2]: 6430 nM
- IC50 [4]: 227 nM

Compound: Cn1c(=O)c2c(nc(SCCCc3ccccc3)n2C)n(C)c1=O
- logP [1]: 3.3
- IC50 [2]: 6480 nM

Compound: Cn1c(=O)c2c(nc(SCCc3ccc(Br)cc3)n2C)n(C)c1=O
- logP [1]: 2.98
- Ratio IC50 (Homo sapiens): 5680
- IC50 [2]: 108000 nM
- IC50 [4]: 19 nM

Compound: Cn1c(=O)c2c(nc([S+]([O-])CCc3ccc(Cl)cc3)n2C)n(C)c1=O (stereo unspecified)
- Ratio IC50 (Homo sapiens): 260
- IC50 [2]: 203000 nM
- IC50 [4]: 781 nM

Compound: Cn1c(=O)c2c(nc(SCc3cccc(Br)c3)n2C)n(C)c1=O
- Ratio IC50 (Homo sapiens): 190
- IC50 [2]: 37900 nM
- IC50 [4]: 199 nM

Compound: Cc1ccc(CCSc2nc3c(c(=O)n(C)c(=O)n3C)n2C)cc1
- logP [1]: 3.15
- Ratio IC50 (Homo sapiens): 1740
- IC50 [2]: 125000 nM
- IC50 [4]: 72 nM

Compound: Cn1c(=O)c2c(nc(SCCCc3ccc(Cl)cc3)n2C)n(C)c1=O
- logP [1]: 3.59
- Ratio IC50 (Homo sapiens): 12
- IC50 [2]: 708 nM
- IC50 [4]: 61 nM

Compound: COc1ccc(CCSc2nc3c(c(=O)n(C)c(=O)n3C)n2C)cc1
- logP [1]: 2.55
- Ratio IC50 (Homo sapiens): 7300
- IC50 [2]: 168000 nM
- IC50 [4]: 23 nM

Compound: Cn1c(=O)c2c(nc([S+]([O-])CCc3ccc(F)cc3)n2C)n(C)c1=O (stereo unspecified)
- Ratio IC50 (Homo sapiens): 68
- IC50 [2]: 239000 nM
- IC50 [4]: 3500 nM

Compound: Cn1c(=O)c2c(nc(SCCc3ccc(Cl)cc3)n2C)n(C)c1=O
- inhibition (INH) [6]: Active
- inhibition (INH) [7]: Active
- Ki [8]: 9.8 nM
- Ratio IC50 (Homo sapiens): 423
- inhibition (INH) [9]: Active
- IC50 [2]: 8460 nM
- Activity [3]: 26%
- Ki [10]: 13 nM
- IC50 [4]: 20 nM

Compound: Cn1c(=O)c2c(nc([S+]([O-])CCc3ccc(Br)cc3)n2C)n(C)c1=O (stereo unspecified)
- Ratio IC50 (Homo sapiens): 122
- IC50 [2]: 57300 nM
- IC50 [4]: 471 nM

Compound: Cn1c(=O)c2c(nc(SCCc3ccccc3)n2C)n(C)c1=O
- logP [1]: 3.22
- Ratio IC50 (Homo sapiens): 69
- IC50 [2]: 18700 nM
- IC50 [4]: 271 nM

Compound: COc1cccc(CCSc2nc3c(c(=O)n(C)c(=O)n3C)n2C)c1
- Ratio IC50 (Homo sapiens): 385
- IC50 [2]: 48100 nM
- IC50 [4]: 125 nM

Compound: Cn1c(=O)c2c(nc(SCCCc3cccc(Cl)c3)n2C)n(C)c1=O
- logP [1]: 3.76
- Ratio IC50 (Homo sapiens): 57
- IC50 [2]: 3530 nM
- IC50 [4]: 62 nM

Compound: Cn1c(=O)c2c(nc([S+]([O-])Cc3ccccc3)n2C)n(C)c1=O (stereo unspecified)
- Ratio IC50 (Homo sapiens): 2
- IC50 [2]: 250000 nM
- IC50 [4]: 131000 nM

Compound: Cn1c(=O)c2c(nc(SCCc3cccc(Br)c3)n2C)n(C)c1=O
- Ratio IC50 (Homo sapiens): 143
- IC50 [2]: 5700 nM
- IC50 [4]: 40 nM

Compound: Cc1cccc(CCSc2nc3c(c(=O)n(C)c(=O)n3C)n2C)c1
- Ratio IC50 (Homo sapiens): 235
- IC50 [2]: 12000 nM
- IC50 [4]: 51 nM

Compound: Cn1c(=O)c2c(nc(SCCc3cccc(Cl)c3)n2C)n(C)c1=O
- Ratio IC50 (Homo sapiens): 132
- IC50 [2]: 5660 nM
- IC50 [4]: 43 nM
